Results: article PMC4931907 (eLife, 2016)

Columns and labels:
[1] = cited from earlier work
p300 = target: T1, p300 (Homo sapiens, UniProt Q09472); assay: p300 inhibition by direct microfluidic mobility shift analysis, H4(3–14) peptide; assay type: biochemical; settings: microfluidic mobility shift, H4(3–14) peptide, 5 μM acetyl-CoA
T1 construct: in vitro acetylation assays with purified histones and a recombinant p300 catalytic domain; purchased Enzo Life Sciences
T1 sequence (Q09472 1287-1663 limits assumed): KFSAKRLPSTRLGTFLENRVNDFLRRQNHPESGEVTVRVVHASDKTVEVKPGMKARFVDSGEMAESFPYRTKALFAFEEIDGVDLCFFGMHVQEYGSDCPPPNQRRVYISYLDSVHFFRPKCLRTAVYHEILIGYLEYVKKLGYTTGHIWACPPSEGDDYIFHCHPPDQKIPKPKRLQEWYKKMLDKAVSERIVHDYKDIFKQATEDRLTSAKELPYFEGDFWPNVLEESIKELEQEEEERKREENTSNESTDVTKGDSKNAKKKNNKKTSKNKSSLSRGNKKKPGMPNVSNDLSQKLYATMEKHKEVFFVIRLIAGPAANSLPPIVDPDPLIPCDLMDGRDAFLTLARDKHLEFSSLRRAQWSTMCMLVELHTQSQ
Protocol: Figure 1. Salicylate inhibits CBP/p300 in vitro. (A) Recombinant p300, CBP, GCN5, or PCAF and histones were incubated with ^14C-labeled acetyl-CoA with or without sodium salicylate, separated by SDS-PAGE, analyzed by autoradiography, and quantified with Image J software. Acetylation levels are relative to those in untreated controls. (B) Thermal stability assay for sodium salicylate binding to the p300 HAT domain. Tm, melting temperature. (C) and (D) Lineweaver-Burk plots showing kinetic analysis of p300 acetyltransferase inhibition by sodium salicylate. Histone acetylation was measured with several concentrations of acetyl-CoA (C) or histone (D) in the presence or absence of sodium salicylate. DOI: http://dx.doi.org/10.7554/eLife.11156.003 Figure 1—figure supplement 1. […] (A) Dose-response data for inhibition of p300 by salicylate and salicyl-CoA. Acetylation of an H4(3–14) peptide was monitored using direct microfluidic mobility shift analysis as previously described ([Montgomery et al., 2014]; [Fanslau et al., 2010]). Error is given as the 95% confidence interval. […] Error is given as the 95% confidence interval. DOI: http://dx.doi.org/10.7554/eLife.11156.004 [drawing 1] TEXT PRINTED IN THE PICTURE: (A) Salicylate: p300 IC50 (mM): 6.12; Confidence Interval [CI95] (mM): 5.2–7.2 | (A) Salicyl-CoA: p300 IC50 (mM): […]; Confidence Interval [CI95] […] (mM): 0.78–1.4 | (B) Diflunisal-CoA: p300 IC50 (mM): 0.02; Confidence Interval [CI95] (mM): 0.02–0.03
Salicyl-CoA and diflunisal-CoA were synthesized from their parent carboxylic acids and HPLC purified according to previously reported methods ([Padmakumar et al., 1997]). The purity of each acyl-CoA was confirmed by analytical HPLC prior immediately prior to utilization ([Montgomery et al., 2014]; [Fanslau et al., 2010]). P300 inhibition assays were performed using direct microfluidic mobility shift analysis as previously described. Briefly, p300 reaction mixture (50 mM HEPES, pH 7.5, 50 mM NaCl, 2 mM EDTA, 2 mM DTT, 0.05% Triton-X-100, 50 nM p300, 2 μM FITC-histone H4 peptide) was plated in 384-well plates and allowed to equilibrate at room temperature for 10 min. Reactions were initiated by addition of acetyl-CoA (final concentration = 5 μM), bringing the final assay volume to 30 μL. Assays were quenched after 10 min (<15% product accumulation) by addition of 5 μL of 0.5 M neutral hydroxylamine and transferred to a Perkin-Elmer Lab-Chip EZ-Reader instrument for analysis. Separation conditions were: downstream voltage of −500 V, upstream voltage of −2500 V, and a pressure of −1.5 psi. Percent conversion was calculated by ratiometric measurement of substrate/product peak heights. Percent activity represents the percent conversion of KAT reactions treated with inhibitors relative to untreated control KAT reactions, and corrected for nonenzymatic acetylation. Dose-response analysis of p300 inhibition was performed in triplicate and analyzed by nonlinear least-squares regression fit to Y = 100/(1 + 10∧(Log IC50 – X)*H), where H = Hill slope (variable). IC50 values represent the concentration that inhibits 50% of KAT activity. Calculations were performed using Prism 6 (GraphPad) software.

[2] = system: AE9a-driven AML cell line; assay: Growth and apoptosis of AE9a cells (trypan blue, annexin V/7AAD); assay type: cell-based, mouse; settings: for Apoptosis, annexin V/7AAD double staining: 24 hr
Description: Previously, we reported that the leukemogenicity of the AML1-ETO fusion protein, generated by a t(8;21) translocation in acute myelogenous leukemia, is regulated by p300-mediated acetylation of lysine 43 of the fusion protein ([Wang et al., 2011]).
Figure 4. […] (B) Kasumi-1 and AE9a cells treated or not with salicylate were counted by trypan-blue exclusion under light microscopy. […] The percentage of sub-G1 cells is shown. […] Cells were counted by trypan-blue exclusion under light microscopy. […] DOI: http://dx.doi.org/10.7554/eLife.11156.011
HEK293T cells (ATCC) were maintained in DMEM supplemented with 10% FCS. The viability of Kasumi-1 cells and AE9a mouse leukemia cells was assessed in triplicate by trypan blue exclusion. The Kasumi cell line was isolated and characterized by one of the coauthors (S. Nimer) ([Becker et al., 2008]). All cell lines were tested annually for mycoplasma contamination. Only negative mycoplasma cultures were used during the conduct of these experiments.
Apoptosis was analyzed with an Annexin V-APC/7AAD Apoptosis kit (Becton-Dickinson) according to manufacturer’s instructions. To assess the distribution of nuclear DNA content in the cell-cycle analysis, cells were collected, washed in PBS, fixed overnight in 75% ethanol at –20°C, treated with 1% RNase A for at least 15 min at 37°C, and stained with […] propidium iodide. To monitor CD34 expression, the cells were stained with an allophycocyanin-conjugated anti-CD34 antibody (Becton Dickinson). To monitor CD11b expression, the cells were stained with a phycoerythrin-conjugated anti-CD11b antibody (Beckman-Coulter). To monitor C-kit and Mac-1 expression, the cells were stained with allophycocyanin-conjugated anti-C-kit and phycoerythrin-conjugated anti-Mac-1 antibodies (Becton-Dickinson). Cells were sorted with a Becton-Dickinson FACSCalibur, and the data were analyzed with FlowJo software.

Structure (SMILES) | Plasma concentrations of diflunisal ([1]; after daily oral administration, ref Nuernberg et al., 1991, Mano et al., 2006) [µM] | IC50 (p300) [mM] | Apoptosis, annexin V/7AAD double staining [2] | Plasma concentrations of salicylate ([1]; humans after oral administration, ref Goldfine et al., 2010, 2013) [µM] | Salicylate plasma concentrations in patients ([1]; patients taking salicylic acid 3–4 g/day, no reference given) [mM] | Concentration inhibiting cell proliferation ([2]; trypan-blue exclusion counts) [mM]
O=C(O)c1cc(-c2ccc(F)cc2F)ccc1O [diflunisal] | 150 to 350 | 1.05 | increased apoptosis in a dose-dependent manner |  |  | 
O=C(O)c1ccccc1O [salicylate, salicylic acid] |  | 6.12 | increased apoptosis | 1000 to 3000 | 1 to 3 | ≥ 1
